Experimental findings from US7740831B2, “Compositions for potentiating glutathione” (Fancl Corporation, priority 2001, dated 2010) are described below.

Structures are written as SMILES.

In data set [1] the test system is CCD 1059 normal human skin fibroblasts. The experiment in a line: Resistance to active oxygen (singlet oxygen, rose bengal) cell damage after glutathione potentiation. The data set is classed as cell-based. As to conditions: compound 20 μg/ml, 24 h preincubation then removed; singlet oxygen exposure; untreated control 28. Here is the method: Then, preincubation was performed for 24 hours at 37° C., so that the intracellular glutathione concentration was increased. […] The present test was performed in order to evaluate whether it was possible to alleviate the effects of the active oxygen that was generated by increasing the intracellular glutathione concentration, so that the plants, hydrolysates thereof, DPE, and DPE glycosides discovered by the present invention were completely removed after the preincubation.
After the cells were washed, rose bengal (which is a singlet oxygen generating agent) was dissolved in Hanks solution so as to have a final concentration of 50 μM, and was added to the cells. The cells were then irradiated for 10 minutes with visible light, so that the cells were exposed to singlet oxygen. The time for which the cells were immersed in Hanks solution and the time for which the cells were exposed to visible light were the same for all of the groups. After the exposure, the cells were again washed with Hanks solution, and the culture medium was exchanged with DMEM containing 10% FBS. After 3 days, the cells were counted by means of a Coulter counter, and the numbers of living cells were compared. In this comparison, an evaluation was performed with the number of cells in a non-exposed group that was not exposed to singlet oxygen taken as 100%. It is seen from Table 6 that the survival rates of the respective groups exposed to singlet oxygen were improved (compared to a group that was not treated with any test substance (control)) by the addition of the above-mentioned plant extracts, hydrolysates thereof, DPE, and DPE glycosides.

The subject of the next data set is B16 melanoma cells. The experiment in a line: Skin whitening test (melanin suppression). In kind it is cell-based, mouse. As to conditions: 3 days; for Melanin suppression rate (compound): 20 μg/ml; for Melanin suppression rate (positive control): 3 mM. As to the method: Melanin suppressing activity was measured by the following test using the extracts of Lamium album, Euphrasia officinalis, Plantago psyllium, Plantago psyllium seeds, Olea europaea, Forsythia suspensa, Conandron ramondioides Siebold et Zucc, Osmanthus fragrans, Osmanthus asiaticus, Syringa vulgaris, Verbena officinalis L., and Momordica charantia L., and hydrolysates thereof obtained in Example 1, DPE obtained in Examples 3 and 4, and the DPE glycosides obtained in Example 5.
Cultured B16 melanoma cells derived from mouse provided as melanin producing cells were cultured in a minimum basic culture medium (MEM) to which FBS was added so as to have a final concentration of 10%. At a concentration of 3×10^3 cell/ml, those cells were inoculated in a 6-well plate (6 ml in each well), and were cultured in a CO2 incubator for 5 days, after which the culture medium was exchanged. […] Then, after further culturing for 3 days under the same conditions, the cells were washed and stripped by a scraper treatment. The cells were then solubilized with sodium dodecylsulfate (SDS), and the absorbance values at 475 nm and 260 nm were measured (these values were taken as S475 and S260). The melanin suppression rate was calculated using the following Equation 1, with the absorbance values at 475 nm and 260 nm obtained for cells cultured in a culture medium to which no test substances were added taken as C475 and C260, respectively. 3 mM vitamin C and 3 mM kojic acid were used as positive controls. As is shown in Tables 7 and 8, the production of melanin is suppressed by the addition of the test substances, so that the test substances show a skin whitening effect.

In data set [2] the test system is CCD 1059 normal human skin fibroblasts. The experiment in a line: Measurement of glutathione activity (intracellular glutathione, method of Baker et al.). The data set is classed as cell-based. As to conditions: 24 hours. Here is the method: The cells were then collected after being cultured for 24 hours. […] The collected cells were disrupted using sonication, and proteins were removed using metaphosphoric acid. Then, the solutions were again neutralized, to thereby produce samples used for glutathione measurement. The measurement of glutathione was performed using the method of Baker et al. (Anal. […] Then, the absorbance at 405 nm was measured, and this was taken as the glutathione concentration.

The subject of data set [3] is Clone 9 human liver cells. The experiment in a line: Effect on liver cell (intracellular glutathione). As to conditions: compound 10 μg/ml, 24 hours. Here is the method: Clone 9 human liver cells (8×10^6 cells) (manufactured by Dainippon Pharmaceutical Co., Ltd.) were inoculated in a petri dish (manufactured by Nunc) with a diameter of 6 cm, and the cells were cultured in DMEM containing 10% deactivated FBS for 3 days at 37° C. in the presence of 5% carbon dioxide gas. When the cells were 80% confluent, the medium was exchanged with DMEM containing 0.5% FBS. After the cells were naturalized for 24 hours, the culture medium was removed by suction and exchanged with fresh DMEM containing 0.5% FBS, and the test substances were dissolved in ethanol. […] 24 hours after the addition, the cells were collected, and glutathione measurements were performed by the method described in Example 5.

The subject of the next data set is rats. The experiment in a line: Long-term oral administration to rats (toxicity). In kind it is in vivo. The conditions noted are these: 100 days, 1,000 mg/kg per day. From the text: DPE or a glycoside thereof has a low toxicity.
Data set [4] has as its system gamma-glutamyl cysteine synthetase mRNA. The experiment in a line: γ-glutamylcysteine synthetase production promoting activity by RT-PCR. The conditions noted are these: compound 20 μg/ml, 8 hours. In kind it is cell-based, human. As to the method:
After 8 hours, total RNA was collected by using TRIZOL reagent (Life Technologies Oriental, Inc.) following a protocol.
Gamma-glutamyl cysteine synthetase mRNA and G3PDH mRNA expression promoting activities were measured with RT-PCR high (Toyobo Co., Ltd.) using the collected total RNA. The G3PDH gene is known as a housekeeping gene and expresses in all cells constantly, so that the gene is widely used as a control gene. The following primers were used for PCR: 5′-TGA AAC TCT GCA AGA GAA GOG G-3′ (SEQ ID NO: 1) and 5′-GCT TCA TCT GGA AAG AGO AGG G -3′ (SEQ ID NO: 2) (gamma-glutamyl cysteine synthetase); and 5′-ACCACAGTCCATGCCATCAC-3′ (SEQ ID NO: 3) and 5′-TCCACCACCCTGTTGCTGTA-3′ (SEQ ID NO: 4) (G3PDH). […] Then, the intensity of staining was measured using image analysis software ImageMaster 1D (manufactured by Amersham Pharmacia Biotech Co.). The group in which no test substances were added (1% ethanol) was taken as a control, and the amount of expression was evaluated by a comparison of the amounts of expression in cases where test substances were added (with a value obtained by dividing the staining intensity of the γ-glutamylcysteine synthetase mRNA by the staining intensity of G3PDH taken as 1). […]

The subject of data set [5] is cystine transporter (xCT). The experiment in a line: Cystine transporter (xCT) production ability by Western blotting. In kind it is cell-based, human. As to conditions: compound 20 μg/ml, 24 hours. From the text:
When the cells were 80% confluent, the medium was exchanged with DMEM containing 0.5% FBS.
A general note: Immunoblotting shows a protein as a band on a membrane.

The test system of data set [6] is CCD 1059 normal human skin fibroblasts. The experiment in a line: Effect of combined use of S-containing compound (cystine) on intracellular glutathione. The data set is classed as cell-based. As to conditions: compound 10 μg/ml, control = cystine only.
Method: CCD 1059 normal human skin fibroblasts (1.5×10^5 cells) (manufactured by Dainippon Pharmaceutical Co., Ltd.) were inoculated in a petri dish (manufactured by Nunc) with a diameter of 6 cm, and the cells were cultured in Dulbecco's modified Eagle's medium (DMEM) containing 10% deactivated fetal bovine serum (hereafter abbreviated to “FBS”) for 3 days at 37° C. in the presence of 5% carbon dioxide gas. When the cells were 80% confluent, the medium was exchanged with DMEM containing 0.5% fetal bovine serum (hereafter abbreviated to “FBS” in some cases). […] Then, the absorbance at 405 nm was measured, and this was taken as the glutathione concentration.
However, since it was desired to add an S-containing compound at an arbitrary concentration, the culture medium used in the case of this addition was DMEM that contains no S-containing compound (i.e., a medium that was free of methionine, cysteine, and cystine). […] A comparison was made by calculation from the ratio relative to respective control groups in which only cystine was added (groups in which only cystine was added were taken as control groups, and the activities of the respective test substance groups were evaluated as ratios relative to the control groups with the activities of the respective control groups taken as 1).
The test system is the same in data set [7]. The experiment in a line: Effect of combined use of S-containing compound (cysteine) on intracellular glutathione. As to conditions: compound 2.5 μg/ml, control = cysteine only. The data set is classed as cell-based.
Method: CCD 1059 normal human skin fibroblasts (1.5×10^5 cells) (manufactured by Dainippon Pharmaceutical Co., Ltd.) were inoculated in a petri dish (manufactured by Nunc) with a diameter of 6 cm, and the cells were cultured in Dulbecco's modified Eagle's medium (DMEM) containing 10% deactivated fetal bovine serum (hereafter abbreviated to “FBS”) for 3 days at 37° C. in the presence of 5% carbon dioxide gas. When the cells were 80% confluent, the medium was exchanged with DMEM containing 0.5% fetal bovine serum (hereafter abbreviated to “FBS” in some cases). After the cells were naturalized for 24 hours, the culture medium was removed by suction and exchanged with fresh DMEM containing 0.5% FBS and the test substances were dissolved in ethanol. […] The cells were then collected after being cultured for 24 hours. […] The collected cells were disrupted using sonication, and proteins were removed using metaphosphoric acid. Then, the solutions were again neutralized, to thereby produce samples used for glutathione measurement. […] To describe the method briefly, reduced nicotinamide adenine dinucleotide phosphate (NADPH), glutathione reductase, and 5,5′-dithiobis(2-nitrobenzoic acid) (DNTB) provided as a coloring agent were added to a 2-(N-morpholino)ethanesulfonate buffer (MES buffer), and the mixture was reacted with each measurement sample or a standard substance used to produce a calibration curve. Then, the absorbance at 405 nm was measured, and this was taken as the glutathione concentration.
However, since it was desired to add an S-containing compound at an arbitrary concentration, the culture medium used in the case of this addition was DMEM that contains no S-containing compound (i.e., a medium that was free of methionine, cysteine, or cystine). […] A comparison was made by calculation from the ratio relative to respective control groups in which only cysteine was added in the same amounts (groups in which only cysteine was added were taken as control groups in which the respective final concentrations of cysteine were 200 and 400 μM, and the activities of the respective test substance groups were evaluated as ratios relative to the control groups with the activities of the respective control groups taken as 1).

Regarding `OC[C@H]1O[C@@H](OCCc2ccc(O)c(O)c2)[C@H](O)[C@@H](O)[C@@H]1O` [DPE-1-O-β-D-Glucopyranocide, 2-(3,4-dihydroxyphenyl)ethanol-1-O-β-D-glucopyranocide], the “Survival rate (%: based on non-exposed group)” value in [1] turned out to be 42%. The “Melanin suppression rate (compound)” value in the data set with B16 melanoma cells turned out to be 24.6%.

As for `OCCc1ccc(O)c(O)c1` [DPE, 2-(3,4-dihydroxyphenyl)ethanol], the “Glutathione enhancing activity (compound), ratio to control” value turned out to be 1.36 in [2] (2.5 μg/ml), 1.85 in data set [2] (5 μg/ml), 2.33 in data set [2] (10 μg/ml) and 2.74 in data set [2] (20 μg/ml). Also, the “Effect on hepatocyte (glutathione), ratio to control” value in data set [3] stood at 1.16. For the same compound, the Mortality result in the data set on rats was “no cases of mortality”. Further, in data set [4], the “Gamma-glutamyl cysteine synthetase/G3PDH (Relative to control)” value amounted to 8.2. Further, in [1], the “Survival rate (%: based on non-exposed group)” value was 61%. Also, the “Amount of xCT expression (Relative to control)” value in data set [5] was 4.8. For the same compound, the “Melanin suppression rate (compound)” value with B16 melanoma cells turned out to be 52.3%. For the same compound, the “Combined effect with cystine, ratio to control, cystine 200 μM added group” value in [6] was 3.42. Moreover, the “Combined effect with cysteine, ratio to control, cysteine 200 μM added group” value in data set [7] was 1.25. Further, the “Combined effect with cysteine, ratio to control, cysteine 400 μM added group” value in data set [7] came to 1.89.

Take `O=c1cc(CO)occ1O` [Kojic acid, reference compound]: in the data set on B16 melanoma cells, the “Melanin suppression rate (positive control)” value is listed as 39.9%.

Turning to `O=C1O[C@H]([C@@H](O)CO)C(O)=C1O` [Vitamin C, reference compound], the “Melanin suppression rate (positive control)” value in the data set with B16 melanoma cells is 23.0%.

Regarding `OCCc1ccc(O[C@@H]2O[C@H](CO)[C@@H](O)[C@H](O)[C@H]2O)c(O)c1` [DPE-4′-O-β-D-Glucopyranocide, 2-(3,4-dihydroxyphenyl)ethanol-4′-O-β-D-glucopyranocide], in [1], the “Survival rate (%: based on non-exposed group)” value amounted to 37%. In addition, the “Melanin suppression rate (compound)” value with B16 melanoma cells is reported as 35.4%.

`OCCc1ccc(O)c(O[C@@H]2O[C@H](CO)[C@@H](O)[C@H](O)[C@H]2O)c1` [DPE-3′-O-β-D-Glucopyranocide, 2-(3,4-dihydroxyphenyl)ethanol-3′-O-β-D-glucopyranocide]: the “Glutathione enhancing activity (compound), ratio to control” value in data set [2] (2.5 μg/ml) was found to be 1.15; in [2] (5 μg/ml), 1.19; in data set [2] (10 μg/ml), 1.25; in data set [2] (20 μg/ml) it was 1.73. In [3], the “Effect on hepatocyte (glutathione), ratio to control” value turned out to be 1.26. The “Gamma-glutamyl cysteine synthetase/G3PDH (Relative to control)” value in data set [4] came to 3.8. The “Survival rate (%: based on non-exposed group)” value in data set [1] is given as 46%. In [5], the “Amount of xCT expression (Relative to control)” value amounted to 1.3. Also, the “Melanin suppression rate (compound)” value with B16 melanoma cells was determined as 32.3%. The “Combined effect with cystine, ratio to control, cystine 200 μM added group” value in data set [6] is listed as 1.56. Besides, in [7], the “Combined effect with cysteine, ratio to control, cysteine 200 μM added group” value is on record as 1.26. Moreover, in data set [7], the “Combined effect with cysteine, ratio to control, cysteine 400 μM added group” value is 1.52.
